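Each compound was tested at five concentrations against cells in 96-well plates for 48 hours. At the GI50, growth is halved.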 Activity calls are given as the source filed them. Cut-off read from the data, not from the text of the source: active = GI50 up to about 1.1 µM and inactive = higher.

Test systems include A498; HCC 2998; HT-29; K562; LOX IMVI; MDA-MB-435; NCI-H460; NCI-H522; OVCAR-3; OVCAR-4; SF-268; SF-295; SK-MEL-28; SK-MEL-2; SN12C; T47D; TK-10; U-251; UACC-62; UO-31.
Experiment in all cases: NCI-60 cell line screen, 48 h

Turning to `O=C(Nc1ccn(C2CC(I)C(COC(c3ccccc3)(c3ccccc3)c3ccccc3)O2)c(=O)n1)c1ccccc1` (stereo not given), the GI50 was 7.03 µM (inactive) in the assay with A498; 12.6 µM (inactive) in the assay with HCC 2998; 6.5 µM (inactive) in the assay with HT-29; 5.28 µM (inactive) with K562; 8.18 µM (inactive) with LOX IMVI; 7.36 µM (inactive) in the assay with MDA-MB-435. The GI50 was 7.11 µM (inactive) with NCI-H460; 11 µM (inactive) in the assay with NCI-H522; 4.25 µM (inactive) in the assay on OVCAR-3; 3.75 µM (inactive) in the assay on OVCAR-4; 12 µM (inactive) in the assay on SF-268; 13.6 µM (inactive) in the assay on SF-295. Also, the GI50 is 11.4 µM (inactive) with SK-MEL-28; > 10 µM (inactive) in the assay on SK-MEL-2; 4.36 µM (inactive) in the assay on SN12C; 6.87 µM (inactive) with T47D; 15.9 µM (inactive) in the assay on TK-10; 10.1 µM (inactive) with U-251. The GI50 in the assay with UACC-62 is 11.2 µM (inactive); with UO-31, 4.53 µM (inactive).
As for `C/C(=N/NC(=S)Nc1ccccc1Cl)c1cccc(/C(C)=N\NC(=S)Nc2ccccc2Cl)n1`, the GI50 is > 100 µM (inactive) with A498; > 100 µM (inactive) in the assay on HCC 2998; > 100 µM (inactive) with HT-29; 18.7 µM (inactive) in the assay with K562; 61.8 µM (inactive) with LOX IMVI; > 100 µM (inactive) in the assay on MDA-MB-435. Moreover, the GI50 was 5.47 µM (inactive) in the assay on NCI-H460; 46.7 µM (inactive) with NCI-H522; 16.3 µM (inactive) with OVCAR-3; 28.4 µM (inactive) with OVCAR-4; > 100 µM (inactive) in the assay with SF-268; > 100 µM (inactive) in the assay on SF-295. Also, the GI50 with SK-MEL-28 is > 100 µM (inactive); with SK-MEL-2, > 100 µM (inactive); in the assay on SN12C, > 100 µM (inactive); in the assay on T47D, > 100 µM (inactive); with TK-10 it was 49.1 µM (inactive); with U-251, 26.7 µM (inactive). Besides, the results for the GI50 in the assay on UACC-62 and with UO-31 were > 100 µM (inactive) and 44 µM (inactive), respectively.
As to `CCN(CC)CCn1ncc2ccc3c(c(=O)c4cccnc4n3CCN(CC)CC)c21`, the GI50 in the assay with A498 is 0.598 µM (active); with HCC 2998, 0.75 µM (active); with HT-29 it was 0.435 µM (active); in the assay on K562, 0.119 µM (active); with LOX IMVI, 0.521 µM (active); in the assay on MDA-MB-435, 0.655 µM (active). In addition, the GI50 in the assay on NCI-H460 was 0.403 µM (active); in the assay with NCI-H522 it was 0.845 µM (active); in the assay with OVCAR-3, 1.13 µM (inactive); in the assay with OVCAR-4 it was 0.933 µM (active); in the assay with SF-268 it was 1.35 µM (inactive); in the assay on SF-295, 1.3 µM (inactive). The GI50 is 2.05 µM (inactive) in the assay with SK-MEL-28; 1.79 µM (inactive) in the assay on SK-MEL-2; 0.621 µM (active) in the assay on SN12C; 2.28 µM (inactive) in the assay on T47D; 2.24 µM (inactive) with TK-10; 0.597 µM (active) in the assay with U-251. Also, the GI50 in the assay on UACC-62 is 2.49 µM (inactive); with UO-31 it was 1.5 µM (inactive).
For the compound `Cc1c(Cc2ccccc2)c(Cc2ccccc2)c(C)[s+]1[O-]`, the GI50 is 24.5 µM (inactive) in the assay on A498; 19.6 µM (inactive) with HCC 2998; 16.7 µM (inactive) with HT-29; 21.2 µM (inactive) with K562; 20.7 µM (inactive) in the assay on LOX IMVI; 17.7 µM (inactive) with MDA-MB-435. Besides, the GI50 is 27.5 µM (inactive) in the assay on NCI-H460; 23.7 µM (inactive) in the assay with NCI-H522; 30.8 µM (inactive) in the assay with OVCAR-3; 23.7 µM (inactive) in the assay on OVCAR-4; 51.1 µM (inactive) in the assay with SF-268; 30.1 µM (inactive) in the assay with SF-295. Further, the GI50 was 30.3 µM (inactive) in the assay with SK-MEL-28; 16.9 µM (inactive) in the assay on SK-MEL-2; 26.5 µM (inactive) with SN12C; 12.9 µM (inactive) in the assay on T47D; 26.1 µM (inactive) with TK-10; 25.6 µM (inactive) with U-251. The GI50 in the assay with UACC-62 was 14.5 µM (inactive); in the assay with UO-31 it was 31.7 µM (inactive).
Take `c1ccc2c(c1)CCc1[nH]c3c(c1-2)-c1ccccc1CC3`: the GI50 in the assay with A498 was > 100 µM (inactive); in the assay with HCC 2998, 36 µM (inactive); with HT-29, 32.3 µM (inactive); in the assay on K562, 36.7 µM (inactive); in the assay with LOX IMVI it was 42.6 µM (inactive); with MDA-MB-435, 74.6 µM (inactive). The GI50 with NCI-H460 was 39.9 µM (inactive); in the assay with NCI-H522, 96.4 µM (inactive); in the assay with OVCAR-3, 91.4 µM (inactive); in the assay with OVCAR-4, 61.5 µM (inactive); in the assay with SF-268, 78 µM (inactive); with SF-295, 39.5 µM (inactive). Moreover, the GI50 in the assay on SK-MEL-28 is > 100 µM (inactive); with SK-MEL-2, > 100 µM (inactive); in the assay with SN12C, > 100 µM (inactive); in the assay with T47D, 90.2 µM (inactive); with TK-10, 98.6 µM (inactive); with U-251, > 100 µM (inactive). Moreover, the GI50 in the assay on UACC-62 and in the assay with UO-31 was > 100 µM (inactive) each time.
As for `CC1=NN(c2nc(N)nc(CSc3cc(Cl)c(C)cc3S(N)(=O)=O)n2)C(C)(C)C1`, the GI50 in the assay with A498, in the assay on HCC 2998, in the assay with HT-29, in the assay with K562, in the assay with LOX IMVI and with MDA-MB-435 was > 10 µM (inactive) each time. The GI50 with NCI-H460, with NCI-H522, in the assay with OVCAR-3, with OVCAR-4, with SF-268 and in the assay with SF-295 was > 10 µM (inactive) each time. Moreover, the GI50 with SK-MEL-28, with SK-MEL-2, in the assay with SN12C, in the assay on T47D, in the assay with TK-10 and in the assay on U-251 was > 10 µM (inactive) each time. The GI50 was > 10 µM (inactive) in the assay on UACC-62 and 0.543 µM (active) in the assay with UO-31.
Regarding `C=CCOc1ccc(C2C(C(=O)OCC)C(=O)CC(C)(O)C2C(=O)OCC)cc1OC` (stereo not given), the GI50 in the assay with A498, with HCC 2998, in the assay with HT-29, in the assay on K562, with LOX IMVI and in the assay on MDA-MB-435 was > 100 µM (inactive) in each case. For the same compound, the GI50 with NCI-H460, with NCI-H522, in the assay on OVCAR-3, in the assay on OVCAR-4, in the assay with SF-268 and in the assay on SF-295 was > 100 µM (inactive) in each case. Moreover, the GI50 in the assay with SK-MEL-28, with SK-MEL-2, with SN12C, with T47D, in the assay on TK-10 and with U-251 was > 100 µM (inactive) throughout. Also, the GI50 in the assay with UACC-62 and with UO-31 was > 100 µM (inactive) in each case.
Take `C[C@]12C=CC(=O)C=C1CC[C@@H]1[C@@H]2CC[C@]2(C)OC(=O)CC[C@@H]12` [TESTOLACTONE]: the GI50 in the assay on A498 was 347 µM (inactive); in the assay on HCC 2998, 372 µM (inactive); with HT-29 it was > 493 µM (inactive); with K562, 449 µM (inactive); with LOX IMVI, > 492 µM (inactive); with MDA-MB-435 it was > 500 µM (inactive). The GI50 in the assay on NCI-H460 is 484 µM (inactive); with NCI-H522, 320 µM (inactive); with OVCAR-3, 479 µM (inactive); with OVCAR-4, 486 µM (inactive); with SF-268, > 489 µM (inactive); with SF-295, > 500 µM (inactive). Besides, the GI50 with SK-MEL-28 was 498 µM (inactive); with SK-MEL-2, > 478 µM (inactive); in the assay with SN12C it was 495 µM (inactive); with T47D, > 337 µM (inactive); in the assay with TK-10, 499 µM (inactive); in the assay with U-251, > 500 µM (inactive). The GI50 was 323 µM (inactive) with UACC-62 and 444 µM (inactive) in the assay with UO-31.
`O=C(/C=C/c1ccccc1)Nc1ccccc1SCCCCl`: the GI50 in the assay on A498 was 9.08 µM (inactive); in the assay on HCC 2998, 21.6 µM (inactive); in the assay on HT-29, 7.94 µM (inactive); in the assay with K562 it was 9.66 µM (inactive); in the assay with LOX IMVI, 8.81 µM (inactive); in the assay with MDA-MB-435 it was 4.95 µM (inactive). Besides, the GI50 in the assay on NCI-H460 was 10.2 µM (inactive); in the assay with NCI-H522, 4.07 µM (inactive); with OVCAR-3, 13.1 µM (inactive); in the assay on OVCAR-4, 12.1 µM (inactive); in the assay on SF-268, 14.4 µM (inactive); in the assay on SF-295, 7.89 µM (inactive). The GI50 in the assay with SK-MEL-28 was > 47.4 µM (inactive); with SK-MEL-2 it was 22.2 µM (inactive); in the assay with SN12C it was 8.93 µM (inactive); in the assay on T47D, 7.52 µM (inactive); in the assay with TK-10, 55.7 µM (inactive); in the assay on U-251, 8.93 µM (inactive). Also, the GI50 with UACC-62 is 6.9 µM (inactive); with UO-31, 7.48 µM (inactive).
Regarding `COc1cc2c[n+](C)c3c4cc(OC)c(OC)cc4c(OCc4ccccc4)cc3c2cc1OC`, the GI50 in the assay with A498 is 27.3 µM (inactive); in the assay with HCC 2998, 2.1 µM (inactive); in the assay on HT-29, 2.28 µM (inactive); in the assay with K562, 1.83 µM (inactive); in the assay on LOX IMVI, 1.31 µM (inactive); in the assay with MDA-MB-435 it was 1.09 µM (active). Besides, the GI50 in the assay on NCI-H460 was 6.62 µM (inactive); in the assay with NCI-H522, 0.155 µM (active); in the assay with OVCAR-3, 0.877 µM (active); in the assay on OVCAR-4, 2.02 µM (inactive); in the assay on SF-268 it was 0.0432 µM (active); with SF-295 it was 4.89 µM (inactive). The GI50 in the assay with SK-MEL-28 is 1.24 µM (inactive); in the assay with SK-MEL-2, 1.63 µM (inactive); in the assay on SN12C, 0.265 µM (active); in the assay on T47D, 0.0986 µM (active); with TK-10, > 31.6 µM (inactive); with U-251 it was 0.0273 µM (active). Besides, the GI50 in the assay with UACC-62 is 0.434 µM (active); with UO-31, > 100 µM (inactive).

The record behind these values is ChEMBL document CHEMBL1201862, “PubChem BioAssay data set” (2004).
